Test results: publication PMC4610307 (Journal of Medicinal Chemistry, 2015)
Values belong to the molecule of their own block, whether it stands above or below them.

Legend:
[1] = target: T1, PRMT1 (Homo sapiens, UniProt Q99873); assay: IC50 and nH determination, PRMT1; format: biochemical
[2] = target: PRMT5 (Homo sapiens, UniProt O14744); assay: IC50 and nH determination, PRMT5; format: biochemical; conditions: ratio of IC50 values
[3] = target: T2, CARM1/PRMT4 (Homo sapiens, UniProt Q86X55); assay: IC50 and nH determination, CARM1; format: biochemical; conditions: ratio of IC50 values
T2 sequence (Q86X55 1-608): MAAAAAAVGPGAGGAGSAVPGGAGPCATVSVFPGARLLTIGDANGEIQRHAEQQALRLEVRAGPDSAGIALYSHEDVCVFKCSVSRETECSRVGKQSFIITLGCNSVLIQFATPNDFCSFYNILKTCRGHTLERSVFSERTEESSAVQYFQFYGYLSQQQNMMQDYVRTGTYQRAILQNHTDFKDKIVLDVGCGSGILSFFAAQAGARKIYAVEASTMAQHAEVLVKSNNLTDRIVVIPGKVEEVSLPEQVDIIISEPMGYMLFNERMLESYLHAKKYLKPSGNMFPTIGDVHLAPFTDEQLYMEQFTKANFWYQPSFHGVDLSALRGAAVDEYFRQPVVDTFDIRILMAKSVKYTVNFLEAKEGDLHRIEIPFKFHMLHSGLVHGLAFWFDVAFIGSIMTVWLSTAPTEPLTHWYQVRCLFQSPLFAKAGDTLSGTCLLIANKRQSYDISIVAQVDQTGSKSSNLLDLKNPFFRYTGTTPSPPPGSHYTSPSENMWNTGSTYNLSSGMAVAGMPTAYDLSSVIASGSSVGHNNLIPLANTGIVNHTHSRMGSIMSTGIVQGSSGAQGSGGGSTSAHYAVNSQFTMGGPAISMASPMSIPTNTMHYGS

[4] = target: PRMT8 (Homo sapiens, UniProt Q9NR22); assay: IC50 and nH determination, PRMT8; format: biochemical; conditions: ratio of IC50 values
[5] = target: His6x-PRMT1 (Homo sapiens, UniProt Q99873); assay: Single-dose inhibition study with PRMT1 enzyme; format: biochemical; conditions: compound at 10 μM, N.I. = no inhibition
[6] = tested on: HEL cells; assay: Cell viability assay; format: cell-based
[7] = tested on: total protein arginine methylation in Meg01, MOLM13, and HEL cells; assay: Western blot of total protein arginine methylation in treated leukemia cells; format: cell-based; conditions: 24 h of treatment; anti-methyl-R antibodies
[8] = tested on: Meg01 cells; assay: Cell viability assay; format: cell-based
[9] = target: T1, PRMT1; assay: Fluorescence titration of compound 50 by PRMT1; format: binding; conditions: excitation 620 nm
[10] = tested on: MOLM13 cells; assay: Cell viability assay; format: cell-based

T1 sequence (Q99873 1-353 isoform Q99873-3): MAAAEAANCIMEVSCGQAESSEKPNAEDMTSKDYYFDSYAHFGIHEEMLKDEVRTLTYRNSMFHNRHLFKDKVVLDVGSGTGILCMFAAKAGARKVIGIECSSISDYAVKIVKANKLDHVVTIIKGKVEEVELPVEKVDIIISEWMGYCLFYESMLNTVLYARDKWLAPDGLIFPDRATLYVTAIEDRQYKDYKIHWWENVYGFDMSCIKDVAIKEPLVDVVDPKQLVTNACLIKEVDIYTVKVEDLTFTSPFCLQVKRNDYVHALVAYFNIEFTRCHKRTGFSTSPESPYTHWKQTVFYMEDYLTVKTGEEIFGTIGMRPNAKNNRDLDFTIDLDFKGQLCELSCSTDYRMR
Sequence of His6x-PRMT1 (Q99873 1-353 isoform Q99873-3): as above
Sequence of PRMT5 (O14744 whole entry, species assumed): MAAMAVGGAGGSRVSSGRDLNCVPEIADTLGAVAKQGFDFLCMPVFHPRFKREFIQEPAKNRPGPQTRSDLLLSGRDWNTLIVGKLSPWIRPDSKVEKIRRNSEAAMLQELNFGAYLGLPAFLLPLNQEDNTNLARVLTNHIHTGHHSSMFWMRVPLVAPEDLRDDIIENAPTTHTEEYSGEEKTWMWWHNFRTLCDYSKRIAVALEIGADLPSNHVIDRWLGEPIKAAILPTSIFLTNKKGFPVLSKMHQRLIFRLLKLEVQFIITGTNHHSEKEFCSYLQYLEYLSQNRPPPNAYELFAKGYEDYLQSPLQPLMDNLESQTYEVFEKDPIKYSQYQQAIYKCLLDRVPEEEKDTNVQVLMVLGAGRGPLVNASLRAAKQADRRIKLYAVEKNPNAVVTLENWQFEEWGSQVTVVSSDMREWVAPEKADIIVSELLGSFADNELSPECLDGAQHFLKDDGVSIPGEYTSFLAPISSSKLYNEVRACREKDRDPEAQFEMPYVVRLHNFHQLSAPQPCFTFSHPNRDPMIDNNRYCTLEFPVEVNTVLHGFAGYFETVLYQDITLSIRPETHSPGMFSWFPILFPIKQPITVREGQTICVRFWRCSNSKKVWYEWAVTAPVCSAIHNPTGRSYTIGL
Sequence of PRMT5 (Q9BQA1 whole entry partner, species assumed): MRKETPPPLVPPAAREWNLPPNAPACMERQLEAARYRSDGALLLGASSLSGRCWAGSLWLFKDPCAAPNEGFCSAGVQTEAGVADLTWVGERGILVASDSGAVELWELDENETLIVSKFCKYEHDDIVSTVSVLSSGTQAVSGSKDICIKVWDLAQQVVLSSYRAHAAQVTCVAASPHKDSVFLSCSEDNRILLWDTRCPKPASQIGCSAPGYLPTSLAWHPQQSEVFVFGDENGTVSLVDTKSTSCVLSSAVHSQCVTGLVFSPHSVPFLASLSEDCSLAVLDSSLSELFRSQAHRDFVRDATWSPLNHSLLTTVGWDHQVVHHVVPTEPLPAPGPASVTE
Sequence of PRMT8 (Q9NR22 whole entry, species assumed): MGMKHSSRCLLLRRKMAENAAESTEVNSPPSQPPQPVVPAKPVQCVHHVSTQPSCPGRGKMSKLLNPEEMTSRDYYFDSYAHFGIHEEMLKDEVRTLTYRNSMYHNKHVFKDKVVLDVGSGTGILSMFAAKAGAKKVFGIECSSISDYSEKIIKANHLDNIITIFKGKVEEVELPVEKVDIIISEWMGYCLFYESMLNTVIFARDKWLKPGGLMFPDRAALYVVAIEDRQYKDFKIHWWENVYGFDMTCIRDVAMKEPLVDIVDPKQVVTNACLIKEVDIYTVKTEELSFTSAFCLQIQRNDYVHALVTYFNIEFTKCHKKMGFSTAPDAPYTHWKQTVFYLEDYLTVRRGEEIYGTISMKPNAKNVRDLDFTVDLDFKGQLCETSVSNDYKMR

fold more potent on PRMT1 than naphthothiazolium counterpart 47 ([1]; IC50 0.61 μM vs 3.05 μM): about 5 fold
Structure (SMILES): CC1(C)C(/C=C/C=C2/N(CCCc3ccccc3)c3ccc4ccccc4c3C2(C)C)=[N+](CCCc2ccccc2)c2ccc3ccccc3c21.[Br-] [Compound E-8]

Inhibition (10 μM) ([5]; PRMT1, 10 µM): no inhibition
Structure (SMILES): CCCCN1/C(=C/C=C/C2=[N+](CCCC)c3ccccc3C2(C)C)C(C)(C)c2ccccc21.[I-] [Compound E-6]

More lines, now with the values behind:

Structure (SMILES): CC1(C)C(/C=C/C=C2/N(CCCc3ccccc3)c3ccc(Cl)cc3C2(C)C)=[N+](CCCc2ccccc2)c2ccc(Cl)cc21.[Br-] [Compound 24, 5-Chloro-2-((E)-3-((E)-5-chloro-3,3-dimethyl-1-(3-phenylpropyl)indolin-2-ylidene)prop-1-en-1-yl)-3,3-dimethyl-1-(3-phenylpropyl)-3H-indol-1-ium Bromide]
selectivity for PRMT1 over other PRMTs (CARM1, PRMT5, and PRMT8) ([1]; overall statement): no selectivity

Structure (SMILES): C(/C=C/c1sc2c3ccccc3ccc2[n+]1CCCc1ccccc1)=C1/Sc2c(ccc3ccccc23)N1CCCc1ccccc1.[I-] [Compound 47, 3-(3-Phenylpropyl)-2-((1E,3Z)-3-(3-(3-phenylpropyl)naphtho[2,1-d]thiazol-2(3H)-ylidene)prop-1-en-1-yl)naphtho[2,1-d]thiazol-3-ium Iodide]
selectivity for PRMT1 over PRMT5 [2]: about 2 fold | selectivity for PRMT1 over CARM1 [3]: about 2 fold | selectivity for PRMT1 over PRMT8 [4]: more than 9 fold

Structure (SMILES): CCN1/C(=C/C(C)=C/c2sc3c4ccccc4ccc3[n+]2CC)Sc2c1ccc1ccccc21 [Compound 48, 3-Ethyl-2-((1E,3Z)-3-(3-ethylnaphtho[2,1-d]thiazol-2(3H)-ylidene)-2-methylprop-1-en-1-yl)naphtho[2,1-d]thiazol-3-ium Iodide]
inhibition at 10 µM ([5]; read-out: Inhibition (10 μM), PRMT1): 90%

Structure (SMILES): CCCCN1/C(=C/C=C(Br)/C=C/C2=[N+](CCCC)c3ccc(Br)cc3C2(C)C)C(C)(C)c2cc(Br)ccc21.[I-] [Compound 50, 5-Bromo-2-((1E,3Z)-3-bromo-5-((E)-5-bromo-1-butyl-3,3-dimethylindolin-2-ylidene)penta-1,3-dien-1-yl)-1-butyl-3,3-dimethyl-3H-indol-1-ium Iodide]
concentration that significantly inhibited leukemia cell growth [6]: 200 nM | total protein arginine methylation level [7]: significant loss of total protein arginine methylation | concentration that significantly inhibited leukemia cell growth [8]: 100 nM | fluorescence intensity increase upon binding to PRMT1 [9]: about 6 fold | concentration that significantly inhibited leukemia cell growth [10]: 100 nM
